{"source": "patent US6953786B2", "about": "“Compositions comprising plant-derived polyphenolic compounds and inhibitors of reactive oxygen species and methods of using thereof” (The Regents of the University of California, priority 2002, dated 2005)", "key": {"[1]": {"test_system": "BSp73AS and Mia PACA-2 cells", "assay": "Caspase-3 activity and annexin staining with MG-132 (FIG. 14C)", "format": "cell-based", "conditions": "MG-132 20 μM"}, "[2]": {"test_system": "NF-κB", "assay": "NF-κB DNA binding activity (EMSA)", "format": "cell-based, rat", "conditions": "BSp73AS, 6 hours; polyphenols 100 μM, MG-132 20 μM", "protocol": "In order to determine the role of activated NF-κB in the regulation of apoptosis caused by the polyphenolic compound, the following assay was conducted. BSp73AS cells were cultured for 6 hours and Mia PACA-2 cells were cultured in the absence of serum or growth factors for 24 hours in the absence (controls) or presence of rutin, quercetin, trans-resveratrol, or genistein, each at 100 μM and 20 μM proteosome inhibitor MG-132. Nuclear proteins were isolated and analyzed for NF-κB DNA binding activity with electrophoretic mobility shift assay (EMSA). Specifically, aliquots of nuclear extracts with equal amount of protein, about 2 to about 10 μg, were mixed in 20 μl reactions with a buffer comprising 10 mM HEPES (pH 7.6), 50 mM KCl, 0.1 mM EDTA, 1 mM DTT, 10% (vol/vol) glycerol and 3 μg poly[d (I-C)]. After aliquots were equilibrated on ice for 5 minutes, binding reactions were stared by addition of 20-60,000 counts/min (20 fM) of ^32P-labeled DNA probes and allowed to proceed for 25-30 minutes at room temperature or up to 1 hour on ice. The oligonucleotide probe containing the κB binding motif (underlined) was annealed to the complementary oligonucleotide with a 5′-G overhang and end-labeled using Klenow DNA polymerase I. The samples were electrophoresed at room temperature in 0.5×TBE buffer (1×TBE 89 mM Tris base, 89 mM boric acid and 2 mM EDTA) on nondenaturing 4.5% polyacrylamide gel at 200 V. Gels were dried and directly analyzed in the PhosphorImager (Molecular Dynamics, Sunnyvale, Calif.). The experiment was repeated twice."}, "[3]": {"test_system": "NF-κB", "assay": "NF-κB DNA binding activity (EMSA / gel shift)", "format": "cell-based, human", "conditions": "Mia PACA-2, 24 hours, no serum; polyphenols 100 μM, MG-132 20 μM", "protocol": "In order to determine the role of activated NF-κB in the regulation of apoptosis caused by the polyphenolic compound, the following assay was conducted. BSp73AS cells were cultured for 6 hours and Mia PACA-2 cells were cultured in the absence of serum or growth factors for 24 hours in the absence (controls) or presence of rutin, quercetin, trans-resveratrol, or genistein, each at 100 μM and 20 μM proteosome inhibitor MG-132. Nuclear proteins were isolated and analyzed for NF-κB DNA binding activity with electrophoretic mobility shift assay (EMSA).\nSpecifically, aliquots of nuclear extracts with equal amount of protein, about 2 to about 10 μg, were mixed in 20 μl reactions with a buffer comprising 10 mM HEPES (pH 7.6), 50 mM KCl, 0.1 mM EDTA, 1 mM DTT, 10% (vol/vol) glycerol and 3 μg poly[d (I-C)]. After aliquots were equilibrated on ice for 5 minutes, binding reactions were stared by addition of 20-60,000 counts/min (20 fM) of ^32P-labeled DNA probes and allowed to proceed for 25-30 minutes at room temperature or up to 1 hour on ice. The oligonucleotide probe\ncontaining the κB binding motif (underlined) was annealed to the complementary oligonucleotide with a 5′-G overhang and end-labeled using Klenow DNA polymerase I. The samples were electrophoresed at room temperature in 0.5×TBE buffer (1×TBE 89 mM Tris base, 89 mM boric acid and 2 mM EDTA) on nondenaturing 4.5% polyacrylamide gel at 200 V. Gels were dried and directly analyzed in the PhosphorImager (Molecular Dynamics, Sunnyvale, Calif.). The experiment was repeated twice.\nTo study the effects of combinations of DPI and polyphenolic compounds on serum-induced activation of NF-κB and protection from apoptosis, the following assay was conducted. Mia PACA-2 cells were cultured for 72 hours in the presence of serum with or without 100 μM trans-resveratrol, 15 μM DPI, a combination of trans-resveratrol, 100 μM genistein, or a combination of genistein and DPI. NF-κB binding activity was measured in nuclear extracts by gel shift assay as described above.\nTo determine the effects of LY29400 and DPI on NF-κB activation, Mia PACA-2 cells were cultured for 72 hours in the presence of serum and 15 μM DPI with or without 50 μM LY294002. NF-κB DNA binding activity was measured in nuclear extracts by gel shift assay as described above."}}, "note": "Residues, ends and D or L forms follow the SMILES beside them. *: point of attachment. Cbz = O=C(OCc1ccccc1)*"}
{"smiles": "CC(C)C[C@@H](C=O)NC(=O)[C@H](CC(C)C)NC(=O)[C@H](CC(C)C)NC(=O)OCc1ccccc1", "note": "[MG-132, reference compound] (Cbz-Leu-Leu-Leu-aldehyde)", "values": [{"measurement": "caspase-3 activity", "setting": "[1]", "result": "small increase in caspase-3 activity"}, {"measurement": "apoptosis (annexin staining)", "setting": "[1]; polyphenols 100 μM", "result": "does not increase apoptosis rates to the same extent as trans-resveratrol"}, {"measurement": "NF-κB activation (DNA binding)", "setting": "[2]", "result": "blocks NF-κB activation"}, {"measurement": "NF-κB activation (DNA binding)", "setting": "[3]", "result": "blocks NF-κB activation"}]}
